From patent US20120172375A1, “COMPOUNDS AND METHODS OF PROMOTING OLIGODENDROCYTE PRECURSOR DIFFERENTIATION” (priority 2008, published 2012)
Entries after “also recorded” stand apart in the source; their conditions may differ.

Assays:
[1] = tested on: cuprizone-fed C57B1/6J mice; experiment: Remyelination after cuprizone-mediated demyelination, Black and Gold staining for total myelin; format: in vivo; details: i.p., two doses; for remyelination effect (Black and Gold stain, corpus callosum): 5-100 mg/kg
Description: (§1) For in vivo experiments in mice, the cuprizone-mediated demyelination model was implemented as described elsewhere, (Sun et al., 2006; Wu et al., 2008). In brief, 9 week-old C57B1/J6 mice were fed with cuprizone supplemented chow (0.3%, Harlan) during 4-6 weeks. At the end of this period, while the mice were still on cuprizone diet, the animals were injected I.P. with the indicated concentrations of small molecules dissolved in DMSO. 72 hrs later, a second dose was administered and at that point the food was changed to regular chow. 48 hr after the second dose, the animals were sacrificed perfused with 4% paraformaldehyde (PFH) and the brain tissue processed or immunohistochemistry.
Brain tissue staining with Black and Gold to detect total myelin was performed in 30 μm microtome floating sections after three washes in a saline solution (0.9% NaCl). Subsequently, the tissue sections were submerged in a 0.1% Black and Gold solution in saline preheated to 60° C. for 5 min. The tissue was incubated in that solution for 8-10 min. or until achievement of purple color was observed. After washing several times with saline, the staining was fixed with a solution of 2% sodium thiosulfate for 3 min., washed with saline three times and finally mounted and visualized.
Demyelination in mouse brain induced by the copper chelator cuprizone administered in the diet is a well established animal model to study demyelination and subsequent remyelination after cuprizone withdrawal. The effect of cuprizone is evident in several brain areas being the demyeliantion of the corpus callosum the most reliable and consistent. In this study, we analyzed the effect of compounds A, A-7 and B on remyelination of six week cuprizone-fed C57B1/6J mice. Compounds were administered i.p. at the end of the sixth week (5-100 mg/kg) while the mice were still maintained on the cuprizone diet for three more days. At that point, a second injection of compounds was performed and then the mice were returned to regular chow for two more days to allow the natural remyelination process to take place. Mice were then sacrificed and the brain tissue prepared for immunohistochemistry.

[2] = tested on: oligodendrocyte progenitor cells; experiment: Cell toxicity and viability (MTT, cell death); format: cell-based, mouse; details: for cell toxicity and viability: concentrations below 50 μM
Description: Differentiation induced by selected compounds was further validated by fluorescence microscopy in cells generated from our Plp-EGFP transgenic mouse. Increased fluorescence in treated oligodendrocyte progenitor was indicative of cell maturation and was again scored following the same scale. 13 positive compounds were identified after secondary screening (FIG. 1). These were analyzed for cell toxicity assays by MTT were yellow 3-(4,5-Dimethylthiazol-2-yl)-2,5-diphenyltetrazolium bromide, a tetrazole (MTT) is reduced to purple formazan in the mitochondria of living cells, showing a solution color change measurable by OD620-590 (Data not shown). Further oligodendrocyte progenitor maturation in response to selected compounds was assessed by induction of myelin protein expression as determined by immunocytochemistry and western blot.

[3] = tested on: cuprizone-fed C57B1/6J mice; experiment: Myelin protein (PLP/DM20, MOG) immunostaining densitometry in cuprizone-demyelinated mice; format: in vivo; details: i.p., two doses
Description: as §1
Immunodetection of oligodendrocyte and myelin markers was performed. In brief, Oligodendrocyte cells plated on PDL-coated dishes were initially fixed in 2% paraformaldehyde (PFA) for 10 min at room temperature (RT) and then 4% PFA for 15 min, washed three times with PBS and permeabilized with 0.1% Triton X100 for 10 min at RT. After blocking with 3% BSA in PBS for 60 min a RT, the cells were incubated with primary antibodies at the indicated concentrations overnight (ON) at 4° C. The cells were washed three times with cold PBS incubated with secondary antibodies for 45 min at RT, and washed again before mounting. Immunostaining of tissue sections prepared with a sliding microtome (30 μm) was performed. In brief, tris buffered saline (TBS) containing 100 nM Sodium fluoride (TBSS) was used the all dilutions and washes. For antigen retrieval, sections were washed 3 times in TBSS, incubated in 5% methanol and 3% H2O2 for 10 min, washed 2 times, and then incubated in 10% Triton X-100 for 20 min. Blocking of unspecific bonds was performed by incubating the tissue sections with 10% NGS for 1 hr. Primary antibodies were diluted in 3% BSA containing 0.02% Triton X-100 and sections were incubated overnight in this solution. The next day the sections were washed 3 times in TBSS, followed by 1 hr incubation in secondary antibodies (1:1000) at 4° C. […]

| Compound | remyelination effect (Black and Gold stain, corpus callosum) [1] | cell toxicity and viability [2] | effect on myelin protein expression / remyelination enhancement [3] | myelin levels relative to the non-cuprizone-fed animals (Black and Gold) ([1]; 100 mg/kg) [%] | concentrations with toxic effect (induction of cell death) [2] [µM] | concentrations with toxic effect (MTT cell viability) ([2]; MTT) |
| --- | --- | --- | --- | --- | --- | --- |
| CC(C)N1CCN(C(=O)COc2ccc(-c3ccccc3)cc2)CC1 [Compound A-7, 1-(Biphenyl-4-yloxy)acetyl-4-isopropylpiperazine] | highly significant remyelination effect; also recorded: enhance remyelination | did not show significant detrimental effects | recovery of myelin protein expression |  |  |  |
| CCS(=O)(=O)N1CCN(C(=O)COc2ccc(-c3ccccc3)cc2)CC1 [Compound A, 1-[(4-biphenylyloxy)acetyl]-4-(ethylsulfonyl)piperazine] | highly significant at the lowest administered dose (5 mg/kg); also recorded: enhance remyelination | did not show significant detrimental effects | recovery of myelin protein expression | 80 |  |  |
| O=[N+]([O-])c1ccc(F)c(NS(=O)(=O)c2ccc(F)cc2)c1 [Compound B, 4-fluoro-N-(2-fluoro-5-nitrophenyl)benzenesulfonamide] | did not detect a measurable induction of myelin recovery |  | did not detect any relevant effect |  | > 10 | higher than 1 μM |
